Results: PubChem BioAssay (NCI)
“And” between values parts separate entries of the source, which are not always exact repeats. Equal entries are not always repeated.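 Growth conditions: 96-well plates. Treatment: test compound, 48 hours, 5 concentrations. Analysis: linear interpolation between bracketing concentrations; unreached endpoints set to highest concentration. Abbreviation: GI50, concentration required for 50% inhibition of growth. TGI: total growth inhibition.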

Columns and labels:
Experiment in all cases: NCI-60 cell line screen, 48 h
[1] = tested on: PC-3 prostate
[2] = tested on: KM12 colon
[3] = tested on: NCI-H23 lung
[4] = tested on: SK-MEL-2 melanoma
[5] = tested on: TK-10 renal
[6] = tested on: OVCAR-4 ovarian
[7] = tested on: HOP-92 NSCLC
[8] = tested on: COLO 205 colon
[9] = tested on: HL-60(TB) leukemia
[10] = tested on: OVCAR-8 ovarian

## N#Cc1c(-c2ccccc2)cc(-c2ccccc2)n(CCCCC(=O)NO)c1=O
[1]
  GI50: 2.72 µM
  TGI: 15.9 µM
[2]
  GI50: 2.8 µM
  TGI: 13.6 µM
[3]
  GI50: 2.4 µM
  TGI: 6.94 µM
[4]
  GI50: 3.21 µM
  TGI: 14.1 µM
[5]
  GI50: 2.5 µM
  TGI: 11.2 µM
[6]
  GI50: 2.74 µM
  TGI: 16.5 µM
[7]
  GI50: 2.23 µM
  TGI: 7.57 µM
[8]
  GI50: 2.74 µM
  TGI: 7.76 µM
[9]
  GI50: 2.39 µM
  TGI: 6.84 µM
[10]
  GI50: 2.16 µM
  TGI: 14 µM

## COC(=O)c1ccc([N+](=O)[O-])c(O)c1
[1]
  TGI: > 100 µM
[2]
  TGI: > 100 µM
[3]
  TGI: > 100 µM
[4]
  TGI: > 100 µM
[5]
  TGI: > 100 µM
[6]
  TGI: > 100 µM
[7]
  TGI: > 100 µM
[8]
  TGI: > 100 µM
[9]
  TGI: > 100 µM
[10]
  TGI: > 100 µM

## CN(C)CCCNc1nccc(-c2c(-c3ccc(F)cc3)nn3cc(C(F)(F)F)ccc23)n1
[1]
  GI50: 9.36 µM
  TGI: > 25 µM
[2]
  GI50: 8.3 µM
  TGI: > 25 µM
[3]
  GI50: > 25 µM
  TGI: > 25 µM
[4]
  GI50: 5.33 µM
  TGI: 14.2 µM
[5]
  GI50: 12.9 µM
  TGI: > 25 µM
[6]
  GI50: 11 µM
  TGI: > 25 µM
[7]
  GI50: 3.61 µM
  TGI: > 25 µM
[8]
  GI50: 4.23 µM
  TGI: 8.71 µM
[9]
  GI50: 4.55 µM
  TGI: 10.9 µM
[10]
  GI50: > 20.1 µM
  TGI: > 25 µM

## C#COc1cccc(Nc2ncnc3ncc(NC(=O)CCl)cc23)c1
[1]
  GI50: > 36.7 µM
  TGI: > 62.5 µM
[2]
  GI50: > 28.4 µM
  TGI: > 62.5 µM
[3]
  GI50: > 62.5 µM
  TGI: > 62.5 µM
[4]
  GI50: > 57.7 µM
  TGI: > 62.5 µM
[5]
  GI50: 62 µM
  TGI: > 62.5 µM
[6]
  GI50: > 62.5 µM
  TGI: > 62.5 µM
[7]
  GI50: > 62.5 µM
  TGI: > 62.5 µM
[8]
  GI50: > 26.8 µM
  TGI: > 62.5 µM
[9]
  GI50: > 21.2 µM
  TGI: > 45 µM
[10]
  GI50: > 14.5 µM
  TGI: > 62.5 µM

## CC[C@H](C)n1cc(C)c2c(C(=O)NCc3c(C)cc(C)[nH]c3=O)cc(-c3ccc(N4CCNCC4)nc3)cc21
[1]
  GI50: 17.3 µM and 13.9 µM
  TGI: 31.5 µM and 27.3 µM
[2]
  GI50: 11.4 µM and 10.7 µM
  TGI: 24.2 µM and 23.6 µM
[3]
  GI50: 18 µM and 17.6 µM
  TGI: 34.3 µM and 34 µM
[4]
  GI50: 17.5 µM and 15.4 µM
  TGI: 32.9 µM and 29.9 µM
[5]
  GI50: 15.4 µM
  TGI: 29.7 µM
[6]
  GI50: 13.4 µM and 12.5 µM
  TGI: 28.9 µM and 26.4 µM
[7]
  GI50: 6.72 µM and 6.83 µM
  TGI: 20.9 µM and 21.1 µM
[8]
  GI50: 5.25 µM and 2.93 µM
  TGI: 18.6 µM and 8.85 µM
[9]
  GI50: 24.6 µM and 14.6 µM
  TGI: 41.8 µM and 31.9 µM
[10]
  GI50: 18.5 µM and 17.7 µM
  TGI: 37.4 µM and 37.6 µM

## CC(=O)OC(C)(C)N=Nc1ccc(Br)cc1
[1]
  TGI: > 100 µM
[2]
  TGI: > 100 µM
[3]
  TGI: > 100 µM
[4]
  TGI: > 100 µM
[5]
  TGI: > 87.9 µM
[6]
  TGI: > 100 µM
[7]
  TGI: 67.6 µM
[8]
  TGI: 1.03 µM
[9]
  TGI: 28 µM
[10]
  TGI: 64.1 µM

## Oc1cc(O)c2c(=S)cc(-c3ccc(Cl)cc3)oc2c1
[1]
  GI50: 2.84 µM
  TGI: 12.3 µM
[2]
  GI50: 2.08 µM
  TGI: 11.5 µM
[3]
  GI50: 2.06 µM
  TGI: 8.8 µM
[4]
  GI50: 2.61 µM
  TGI: 7.46 µM
[5]
  GI50: 4.08 µM
  TGI: 19.1 µM
[6]
  GI50: 0.379 µM
  TGI: > 31.8 µM
[7]
  GI50: 1.62 µM
  TGI: 5.11 µM
[8]
  GI50: 15.3 µM
  TGI: 33.6 µM
[9]
  GI50: 3.17 µM
  TGI: 22.5 µM
[10]
  GI50: 3.3 µM
  TGI: 14.9 µM

## CC[C@@H](C(=O)[C@@H](C)[C@@H](O)[C@H](C)[C@@H]1O[C@@H]([C@@H](CC)C(=O)O)CC[C@@H]1C)[C@H]1OC2(C=C[C@@H](O)[C@]3(CC[C@@](C)([C@H]4CC[C@](O)(CC)[C@H](C)O4)O3)O2)[C@H](C)C[C@@H]1C (some centres not stated)
[1]
  GI50: 0.0408 µM
  TGI: > 50 µM
[2]
  GI50: 0.766 µM
  TGI: 8.43 µM
[3]
  GI50: 0.207 µM
  TGI: 15.4 µM
[4]
  GI50: 0.622 µM
  TGI: 2 µM
[5]
  GI50: 1.25 µM
  TGI: 20.1 µM
[6]
  GI50: 3.01 µM
  TGI: 49.3 µM
[7]
  GI50: 0.0829 µM
  TGI: 5.45 µM
[8]
  GI50: 0.124 µM
  TGI: 5.47 µM
[9]
  GI50: 0.0894 µM
  TGI: 0.316 µM
[10]
  GI50: 0.823 µM
  TGI: > 48.3 µM

## COc1c(CNC(=O)CCl)cc2[nH]c(C)cc2c1CNC(=O)CCl
[1]
  GI50: 12.2 µM
  TGI: 33.9 µM
[2]
  GI50: 6.08 µM
  TGI: 19.4 µM
[3]
  GI50: 7.14 µM
  TGI: 31.3 µM
[4]
  GI50: 11 µM
  TGI: 41.6 µM
[5]
  GI50: 9.17 µM
  TGI: 56.7 µM
[6]
  GI50: 4.55 µM
  TGI: 22.3 µM
[7]
  GI50: 4.08 µM
  TGI: 20.2 µM
[8]
  GI50: 10.6 µM
  TGI: 27.8 µM
[9]
  GI50: 4.32 µM
  TGI: 26.5 µM
[10]
  GI50: 4.73 µM
  TGI: 60.4 µM

## c1ccc(-c2nn(-c3ccccc3)[n+](-c3cccc4ccccc34)n2)cc1
[1]
  GI50: 0.583 µM
  TGI: > 100 µM
[2]
  GI50: 0.701 µM
  TGI: 11.3 µM
[3]
  GI50: 0.994 µM
  TGI: 12.8 µM
[4]
  GI50: 2.92 µM
  TGI: 12 µM
[5]
  GI50: 8.53 µM
  TGI: 73.6 µM
[6]
  GI50: 0.394 µM
  TGI: 12.4 µM
[7]
  GI50: 1.15 µM
  TGI: 7.68 µM
[8]
  GI50: 0.313 µM
  TGI: 1.28 µM
[9]
  GI50: 0.386 µM
  TGI: 2.06 µM
[10]
  GI50: 1.85 µM
  TGI: 54.5 µM

## O=S1(=O)CS(=O)(=O)OCCCO1
[1]
  TGI: > 100 µM
[2]
  TGI: > 100 µM
[3]
  TGI: > 100 µM
[4]
  TGI: > 100 µM
[5]
  TGI: > 100 µM
[6]
  TGI: > 100 µM
[7]
  TGI: > 100 µM
[8]
  TGI: > 100 µM
[9]
  TGI: > 100 µM
[10]
  TGI: > 100 µM

## COc1ccc2c(=O)c3cc([N+](=O)[O-])ccc3n(C)c2c1
[1]
  TGI: > 100 µM
[2]
  TGI: > 100 µM
[4]
  TGI: > 100 µM
[5]
  TGI: > 100 µM
[6]
  TGI: > 100 µM
[7]
  TGI: > 100 µM
[8]
  TGI: > 100 µM
[9]
  TGI: > 100 µM
[10]
  TGI: > 100 µM

## CCCCN(CCCC)CCCN=c1nc2c(c(N)n1-c1ccccc1)c(=S)n(-c1ccccc1)c(=S)n2-c1ccccc1
[1]
  GI50: 0.59 µM
  TGI: 1.94 µM
[2]
  GI50: 0.415 µM
  TGI: 1.46 µM
[3]
  GI50: 1.88 µM
  TGI: 3.97 µM
[4]
  GI50: 1.74 µM
  TGI: 3.47 µM
[5]
  GI50: 1.28 µM
  TGI: 2.69 µM
[6]
  GI50: 0.994 µM
  TGI: 2.46 µM
[7]
  GI50: 0.229 µM
  TGI: 0.83 µM
[8]
  GI50: 0.329 µM
  TGI: 1.39 µM
[9]
  GI50: 0.211 µM
  TGI: > 100 µM
